Laboratory results taken from patent publication US20230272014A1, “COMPOSITION OF NANOPARTICLES AS CARRIER FOR HPV-DERIVED IMMUNOGENIC FRAGMENTS” (priority 2020, published 2023).

Legend:
[1] = test system: influenza A virus PR8/34; format: in vivo, C57BL/6 mice; details: s.c. 24 hours before intranasal five-fold LD50 influenza A PR8/34
[2] = Poly(I:C) loading capacity of SiO2-Arg nanoparticles (DLS, zeta potential); format: physicochemical; details: SiO2-Arg loaded with poly(I:C) LMW, 0.9% NaCl
[3] = test system: DC2.4 cells; assay: MHC class I cross presentation of OVA257-264 in DC2.4 cells; format: cell-based, murine; details: 6 h incubation, 5 μM, 25-D1.16 antibody, flow cytometry, with or without SiO2—PO3H2
Description: After an incubation time of 6 h, the test substances were removed by washing with phosphate-buffered saline (PBS). In the next step, the cells were incubated with CD16/CD32 antibody in order to block the non-specific binding of the detection antibody to the Fc (Fragment, crystallizable) receptor of the cells. After incubation with 25-D1.16 antibody, the amount of cross-presented OVA257-264 was quantified by flow cytometry. FIG. 16: […] Quantification was carried out by flow cytometry after labeling with 25-D1.16 detection antibody.

For “polyinosinic:polycytidylic acid [poly(I:C)]”, the “improvement compared to the placebo group” value [1] was “does not show any statistically significant improvement”, the PDI [2] was 0.557 and the Peak [2] was 12.69 nm. It also gave a Z ave [2] of 33.83 nm.

For “SIINFEKL (Ovalbumin aa 258-265; listed as Gallus gallus) [OVA257-264]”, the “OVA257-264 MHC class I presentation” value [3] was “presented in significant amounts”.
